Read-outs that look alike come from different tables or passages of the source.
Test system: cell lines from the Cancer Cell Line Encyclopedia (CCLE)
Assay: High-throughput cell viability assay, CCLE cell line panel (n = 356)
Type: cell-based, human
Conditions: for IC50: Homo sapiens
Experimental: Cell lines were partitioned into sensitive and insensitive groups based on compound potency (IC50). […] All other cell lines were obtained from ATCC (American Type Culture Collection), DSMZ (Deutsche Sammlung von Mikroorganismen und Zellkulturen), and HSRRB (Health Science Research Resources Bank) and cultured in RPMI or Dulbecco's modified Eagle's medium plus 10% FBS (Invitrogen, Carlsbad, CA) at 37°C, 5% CO2.

COc1cc2c(cc1OC(C)C)[C@H](c1ccc(Cl)cc1)N(c1ccc(N(C)C[C@H]3CC[C@H](N4CCNC(=O)C4)CC3)cc1)C(=O)C2 [NVP-CFC218]
IC50 (read-out: NVP- CFC218 IC50 (µM), cell line MEL-HO, skin, TP53 WT): > 8 µM | IC50 (read-out: NVP- CFC218 IC50 (µM), cell line NCI-H1341, lung, TP53 WT): > 8 µM | IC50 (read-out: NVP- CFC218 IC50 (µM), cell line PE/CA-PJ41 (clone D2), upper_aerodigestive_tract, TP53 MUT): > 8 µM | IC50 (read-out: NVP- CFC218 IC50 (µM), cell line PEER, haem._and_lymphoid_tissue, TP53 MUT): > 8 µM | IC50 (read-out: NVP- CFC218 IC50 (µM), cell line SNG-M, endometrium, TP53 WT): > 8 µM | IC50 (read-out: NVP- CFC218 IC50 (µM), cell line Sq-1, lung, TP53 WT): > 8 µM | IC50 (read-out: NVP- CFC218 IC50 (µM), cell line TE-9, oesophagus, TP53 MUT): > 8 µM | IC50 (read-out: NVP- CFC218 IC50 (µM), cell line WM-88, skin, TP53 WT): > 8 µM | Amax (Hs 729, TP53 MUT): 7.88% | sensitivity call (Hs 729, TP53 MUT): insensitive (Sensitivity call for each compound was applied according to a cut-off of 4 µM for IC50 and -50% for Amax) | Amax (IGROV1, TP53 MUT): -1.82% | sensitivity call (IGROV1, TP53 MUT): insensitive (Sensitivity call for each compound was applied according to a cut-off of 4 µM for IC50 and -50% for Amax) | Amax (J82, TP53 MUT): -2.55% | sensitivity call (J82, TP53 MUT): insensitive (Sensitivity call for each compound was applied according to a cut-off of 4 µM for IC50 and -50% for Amax) | Amax (JHH-7, TP53 MUT): -2.28% | sensitivity call (JHH-7, TP53 MUT): insensitive (Sensitivity call for each compound was applied according to a cut-off of 4 µM for IC50 and -50% for Amax) | Amax (JHUEM-2, TP53 WT): -91.79% | sensitivity call (JHUEM-2, TP53 WT): sensitive (Sensitivity call for each compound was applied according to a cut-off of 4 µM for IC50 and -50% for Amax) | Amax (JMSU-1, TP53 MUT): 2.12% | sensitivity call (JMSU-1, TP53 MUT): insensitive (Sensitivity call for each compound was applied according to a cut-off of 4 µM for IC50 and -50% for Amax) | Amax (KE-39, TP53 MUT): -5.22% | sensitivity call (KE-39, TP53 MUT): insensitive (Sensitivity call for each compound was applied according to a cut-off of 4 µM for IC50 and -50% for Amax) | Amax (KE-97, TP53 WT): -79.42% | sensitivity call (KE-97, TP53 WT): sensitive (Sensitivity call for each compound was applied according to a cut-off of 4 µM for IC50 and -50% for Amax) | Amax (KMM-1, TP53 MUT): -27.14% | sensitivity call (KMM-1, TP53 MUT): insensitive (Sensitivity call for each compound was applied according to a cut-off of 4 µM for IC50 and -50% for Amax) | Amax (KNS-60, TP53 MUT): -1.47% | sensitivity call (KNS-60, TP53 MUT): insensitive (Sensitivity call for each compound was applied according to a cut-off of 4 µM for IC50 and -50% for Amax) | Amax (KP-N-SI9s, TP53 WT): -92.10% | sensitivity call (KP-N-SI9s, TP53 WT): sensitive (Sensitivity call for each compound was applied according to a cut-off of 4 µM for IC50 and -50% for Amax) | Amax (KU812, TP53 MUT): 19.95% | sensitivity call (KU812, TP53 MUT): insensitive (Sensitivity call for each compound was applied according to a cut-off of 4 µM for IC50 and -50% for Amax) | Amax (KYSE-30, TP53 MUT): -3.88% | sensitivity call (KYSE-30, TP53 MUT): insensitive (Sensitivity call for each compound was applied according to a cut-off of 4 µM for IC50 and -50% for Amax) | Amax (KYSE-70, TP53 MUT): -0.20% | sensitivity call (KYSE-70, TP53 MUT): insensitive (Sensitivity call for each compound was applied according to a cut-off of 4 µM for IC50 and -50% for Amax) | Amax (KYSE-140, TP53 MUT): -19.56% | sensitivity call (KYSE-140, TP53 MUT): insensitive (Sensitivity call for each compound was applied according to a cut-off of 4 µM for IC50 and -50% for Amax) | Amax (KYSE-180, TP53 MUT): -30.58% | sensitivity call (KYSE-180, TP53 MUT): insensitive (Sensitivity call for each compound was applied according to a cut-off of 4 µM for IC50 and -50% for Amax) | Amax (LCLC-103H, TP53 MUT): -1.79% | sensitivity call (LCLC-103H, TP53 MUT): insensitive (Sensitivity call for each compound was applied according to a cut-off of 4 µM for IC50 and -50% for Amax) | Amax (LK-2, TP53 MUT): -3.65% | sensitivity call (LK-2, TP53 MUT): insensitive (Sensitivity call for each compound was applied according to a cut-off of 4 µM for IC50 and -50% for Amax) | Amax (LN-18, TP53 MUT): -16.71% | sensitivity call (LN-18, TP53 MUT): insensitive (Sensitivity call for each compound was applied according to a cut-off of 4 µM for IC50 and -50% for Amax) | Amax (LOU-NH91, TP53 MUT): 2.89% | sensitivity call (LOU-NH91, TP53 MUT): insensitive (Sensitivity call for each compound was applied according to a cut-off of 4 µM for IC50 and -50% for Amax) | Amax (LOX IMVI, TP53 WT): -48.25% | sensitivity call (LOX IMVI, TP53 WT): insensitive (Sensitivity call for each compound was applied according to a cut-off of 4 µM for IC50 and -50% for Amax) | Amax (LU65, TP53 MUT): -1.36% | sensitivity call (LU65, TP53 MUT): insensitive (Sensitivity call for each compound was applied according to a cut-off of 4 µM for IC50 and -50% for Amax) | Amax (MEG-01, TP53 MUT): 0.30% | sensitivity call (MEG-01, TP53 MUT): insensitive (Sensitivity call for each compound was applied according to a cut-off of 4 µM for IC50 and -50% for Amax) | Amax (MKN74, TP53 MUT): 2.29% | sensitivity call (MKN74, TP53 MUT): insensitive (Sensitivity call for each compound was applied according to a cut-off of 4 µM for IC50 and -50% for Amax) | Amax (MOG-G-UVW, TP53 WT): 3.49% | sensitivity call (MOG-G-UVW, TP53 WT): insensitive (Sensitivity call for each compound was applied according to a cut-off of 4 µM for IC50 and -50% for Amax) | Amax (MOLM-16, TP53 MUT): 12.84% | sensitivity call (MOLM-16, TP53 MUT): insensitive (Sensitivity call for each compound was applied according to a cut-off of 4 µM for IC50 and -50% for Amax) | Amax (MeWo, TP53 MUT): 0.14% | sensitivity call (MeWo, TP53 MUT): insensitive (Sensitivity call for each compound was applied according to a cut-off of 4 µM for IC50 and -50% for Amax) | Amax (NCI-H23, TP53 MUT): -1.09% | sensitivity call (NCI-H23, TP53 MUT): insensitive (Sensitivity call for each compound was applied according to a cut-off of 4 µM for IC50 and -50% for Amax) | Amax (NCI-H1355, TP53 MUT): -28.98% | sensitivity call (NCI-H1355, TP53 MUT): insensitive (Sensitivity call for each compound was applied according to a cut-off of 4 µM for IC50 and -50% for Amax) | Amax (NCI-H1648, TP53 MUT): -2.43% | sensitivity call (NCI-H1648, TP53 MUT): insensitive (Sensitivity call for each compound was applied according to a cut-off of 4 µM for IC50 and -50% for Amax) | Amax (NCI-H1651, TP53 MUT): -2.57% | sensitivity call (NCI-H1651, TP53 MUT): insensitive (Sensitivity call for each compound was applied according to a cut-off of 4 µM for IC50 and -50% for Amax) | Amax (NCI-H2009, TP53 MUT): -6.28% | sensitivity call (NCI-H2009, TP53 MUT): insensitive (Sensitivity call for each compound was applied according to a cut-off of 4 µM for IC50 and -50% for Amax) | Amax (NCI-H2110, TP53 MUT): -4.78% | sensitivity call (NCI-H2110, TP53 MUT): insensitive (Sensitivity call for each compound was applied according to a cut-off of 4 µM for IC50 and -50% for Amax) | Amax (NCI-H2122, TP53 MUT): -89.07% | sensitivity call (NCI-H2122, TP53 MUT): sensitive (Sensitivity call for each compound was applied according to a cut-off of 4 µM for IC50 and -50% for Amax) | Amax (NCI-H2444, TP53 MUT): -4.64% | sensitivity call (NCI-H2444, TP53 MUT): insensitive (Sensitivity call for each compound was applied according to a cut-off of 4 µM for IC50 and -50% for Amax) | Amax (NCI-H2452, TP53 WT): -0.68% | sensitivity call (NCI-H2452, TP53 WT): insensitive (Sensitivity call for each compound was applied according to a cut-off of 4 µM for IC50 and -50% for Amax) | Amax (NCO2, TP53 MUT): -1.52% | sensitivity call (NCO2, TP53 MUT): insensitive (Sensitivity call for each compound was applied according to a cut-off of 4 µM for IC50 and -50% for Amax) | Amax (OCI-M1, TP53 MUT): -1.98% | sensitivity call (OCI-M1, TP53 MUT): insensitive (Sensitivity call for each compound was applied according to a cut-off of 4 µM for IC50 and -50% for Amax) | Amax (OE33, TP53 MUT): -2.82% | sensitivity call (OE33, TP53 MUT): insensitive (Sensitivity call for each compound was applied according to a cut-off of 4 µM for IC50 and -50% for Amax)

From paper PMC4468608, “A distinct p53 target gene set predicts for response to the selective p53–HDM2 inhibitor NVP-CGM097” (eLife, 2015)
